System: LL/2 lung cancer tumor endothelial cells
Assay: Lung LL2 ex vivo model of tumor angiogenesis
Assay type: cell-based, mouse
Settings: for 48 hrs (morphology observations): LL/2 tumor endothelial cells; for Cell death: drug treatment for two days, ratio of red area to total endothelial cell area; for cytotoxicity at 40 µM / cytotoxicity at 20 µM / cytotoxicity at 10 µM: Mus musculus, Endothelial cell, 48 h, read-out: Cell death
Protocol: An ex vivo tumor angiogenesis model was developed to test the efficacy of anti-cancer candidate agents. The following protocol describes the Ex Vivo Tumor Angiogenesis Model.
• 1. The day before the experiment, all necessary tools were sprayed with 70% ethanol and sterilized under UV light overnight, including blade, dissecting and micro-dissecting scissors and […]. 24-well dishes were placed at 4° C. to pre-chill plates and Matrigel was thawed, 24 hours before tumor dissection. • 2. 70% ethanol was sprayed on working bench. Two sterile petri dishes were prepared with 10 ml sterile PBS. The following steps 3 and 4 are necessary for mouse tumor models. For fresh human tumor, steps 3 and 4 are skipped. • 3. The tumor-bearing mice were euthanized. 70% ethanol was sprayed on the mouse and the tumor was removed using sterilized dissecting tools (avoid the fur). The tumor was rinsed in petri dish with sterile PBS to remove ethanol and fur. The tumor was transferred to a new petri dish with PBS for dissection. The dish is placed on ice. • 4. Pre-chilled sterile pipet tips were used to seed regular Matrigel in 24 well plates on ice. Matrigel (30 μl) was dropped in the middle of each well without touching the edge of the well (avoid introducing bubbles if possible). • 5. The tumor was cut in halves using the sterile blade. Healthy tumor tissue that is not necrotic and is within the tumor capsule was identified and isolated. The healthy tumor tissue was cut into small pieces. For instance, a suitable size for the tumor tissue is 0.5 mm (H)×0.5 mm (L)×0.3 mm (D) with a total volume of 0.075 mm^3. • 6. Each tumor piece was gently transferred and embedded in the Matrigel drop in the 24-well plate. The embedded piece was placed in the bottom and middle of each Matrigel drop. The plate was kept on ice all the time. • 7. After seeding the tumor pieces, plates were incubated in a 37° C. cell culture incubator without medium for 10 minutes in order for the Matrigel to solidify. • 8. Endothelial Growth Medium (0.5 ml) was added to each well and incubated at 37° C. with 5% CO2. Treatment was not added until the new endothelial cells was grown out of the tumor or were larger than 3 mm in diameter. This usually takes 4 days for the LL2 Lewis lung cancer model and 7 days for the CT26 colon cancer model. For human tumor models, the growth time is typically 2-3 weeks, depending on the tumor type. Media was changed every 4 days during prolonged culture. Typically, when the tumor tissue grows to 2 mm in diameter, it was good for drug testing. A size of about 3 mm in diameter can make visualization easier. • 9. When the assay was ready to be analyzed for cell death (e.g., 48 hours after drug addition), the dye mixture was prepared by mixing 6 μl of green dye to stain live cells (5 mg/ml Fluorescein diacetate or FDA in DMSO) with 30 μl of red dye (2.5 mg/ml Propidium iodide or PI in PBS) to stain dead cells in an Eppendorf tube. The FDA dye needs to be stored frozen in a −20° C. freezer because it has a labile ester bond. • 10. 1 μl of the dye mixture was added to each well of the 24-well dish. It is usually preferred to do one 24-well dish at a time given the amount of time needed to take pictures (the green dye is not as stable in the cells in the long term). • 11. The dish was gently rocked a few times to mix the dye with the media in the wells and incubate the dish at 37° C. for 10 min (too long incubation can make the green signal too intense). • 12. Each well was washed with 0.5 ml of sterile PBS and then 0.5 ml of phenol red free SFM was added to each well. Alternatively 0.5 ml of regular Endothelial Cell Growth Media can be added to each well if this well needs to be continuously maintained after the experiment. • 13. An inverted microscope using the 2× objective lens was used to observe morphological changes in the experimental wells. • 14. […]

SMILES | 48 hrs (morphology observations) (20 μm) | Cell death (20 μm) | 48 hrs (morphology observations) (40 μm) | Cell death (40 μm) | other results
CCOC(=O)c1ccc2ncc(S(=O)(=O)c3ccc(OC)cc3)c(-n3cncn3)c2c1 [Compound 183] | – | – | – | – | 48 hrs (morphology observations) (10 μm): **** (100% of endothelial cells vesicularize in cell shape and look flattened in morphology (indicating disintegration of the cell body)); Cell death (10 μm): 100%
COc1ccc(S(=O)(=O)c2cnc3ccc([N+](=O)[O-])cc3c2N2CCC(N3CCCCC3)CC2)cc1 [Compound 114] | 0 | 5% | – | – | –
CCCCOc1ccc(S(=O)(=O)c2cnc3ccc([S+](C)[O-])cc3c2N2CCC(N3CCN(c4ccc(F)cc4)CC3)CC2)cc1 (stereo not drawn) [Compound 239] | – | – | 0 | 40% | –
CCCCCCCCCCCCCCCCOc1ccc(S(=O)(=O)c2cnc3ccc([S+](C)[O-])cc3c2N2CCC(N3CCN(CCO)CC3)CC2)cc1 (stereo not drawn) [Compound 376] | 0 | 10% | – | – | –
CCCCCCCCCCOc1ccc(S(=O)(=O)c2cnc3ccc([S+](C)[O-])cc3c2N2CCC(N3CCN(CCO)CC3)CC2)cc1 (stereo not drawn) [Compound 268] | *** (more than 50% but less than 100% of endothelial cells vesicularize in cell shape) | 50% | – | – | –
CCCCCCCCCCOc1ccc(S(=O)(=O)c2cnc3ccc([S+](C)[O-])cc3c2N2CCC(N3CCC(N4CCCC(O)C4)CC3)CC2)cc1 (stereo not drawn) [Compound 288] | – | – | – | – | 48 hrs (morphology observations) (10 μm): *** (more than 50% but less than 100% of endothelial cells vesicularize in cell shape); Cell death (10 μm): 50%
CCc1ccc(S(=O)(=O)c2cnc3ccc(OC(F)(F)F)cc3c2NCc2ccncc2)cc1 [Compound 106] | 0 | 5% | – | – | –
COc1ccc(S(=O)(=O)c2cnc3ccc(C(=O)N(C)C)cc3c2N2CCCN(CC(=O)N(C)C)CC2)cc1 [Compound 333] | – | – | 0 | 0% | –
CCCCOc1ccc(S(=O)(=O)c2cnc3ccc(C(=O)OCC)cc3c2N2CCCN(CCN3CCCC3)CC2)cc1 [Compound 182] | – | – | **** (100% of endothelial cells vesicularize in cell shape and look flattened in morphology (indicating disintegration of the cell body)) | 100% | –
CCCCCCCOc1ccc(S(=O)(=O)c2cnc3ccc(SC)cc3c2N2CCN(C3CCN(Cc4ccccc4)C3)CC2)cc1 (stereo not drawn) [Compound 274] | 0 | 10% | – | – | –
CCCCOc1ccc(S(=O)(=O)c2cnc3ccc([S+](C)[O-])cc3c2N2CCC(N3CCC(O)CC3)CC2)cc1 (stereo not drawn) [Compound 168] | 0 | 10% | – | – | –
CNC(=O)c1ccc2ncc(S(=O)(=O)c3ccc(OC)cc3)c(NC)c2c1 [Compound 360] | – | – | 0 | – | cytotoxicity at 40 µM: 20%
CCCCCCCCCCCCOc1ccc(S(=O)(=O)c2cnc3ccc([S+](C)[O-])cc3c2N2CCC(N3CCC(N4CCCC(O)C4)CC3)CC2)cc1F (stereo not drawn) [Compound 367] | 0 | – | – | – | cytotoxicity at 20 µM: 5%
CCc1ccc(S(=O)(=O)c2cnc3ccc(OC(F)(F)F)cc3c2-n2cccn2)cc1 [Compound 109] | 0 | 0% | – | – | –
CCCCOc1ccc(S(=O)(=O)c2cnc3ccc(SC)cc3c2N2CCC(N3CCC(O)(c4ccccc4)CC3)CC2)cc1 [Compound 232] | – | – | 0 | 10% | –
CCCCCCCCCCOc1ccc(S(=O)(=O)c2cnc3ccc([S+](C)[O-])cc3c2N2CCC(N3CCC(N4CCCCC4)CC3)CC2)cc1F (stereo not drawn) [Compound 290] | – | – | – | – | 48 hrs (morphology observations) (10 μm): *** (more than 50% but less than 100% of endothelial cells vesicularize in cell shape); cytotoxicity at 10 µM: 50%
CCCCOc1ccc(S(=O)(=O)c2cnc3ccc(C(=O)OCC)cc3c2N2CCCN(CCN3CCCCC3)CC2)cc1 [Compound 181] | – | – | **** (100% of endothelial cells vesicularize in cell shape and look flattened in morphology (indicating disintegration of the cell body)) | 100% | –

SMILES | 48 hrs (morphology observations) (20 μm) | Cell death (20 μm) | 48 hrs (morphology observations) (40 μm) | Cell death (40 μm) | other results
CCCCOc1ccc(S(=O)(=O)c2cnc3ccc(C(=O)OCC)cc3c2N2CCS(=O)(=O)CC2)cc1 [Compound 196] | – | – | 0 | 30% | –
CCCCOc1ccc(S(=O)(=O)c2cnc3ccc(OC(F)(F)F)cc3c2N2CCSCC2)cc1 [Compound 187] | – | – | 0 | 30% | –
COc1ccc(S(=O)(=O)c2cnc3cc(OC)c(OC)cc3c2N2C[C@@H]3C[C@H]2CN3C)cc1 [Compound 306] | – | – | 0 | – | cytotoxicity at 40 µM: 40%
CCCCCCCOc1ccc(S(=O)(=O)c2cnc3ccc(SC)cc3c2N2CCC(N3CCC(O)CC3)CC2)cc1 [Compound 223] | – | – | *** (more than 50% but less than 100% of endothelial cells vesicularize in cell shape) | – | cytotoxicity at 40 µM: 30%
CCCCOc1ccc(S(=O)(=O)c2cnc3ccc(OC(F)(F)F)cc3c2N2CC[S+]([O-])CC2)cc1 [Compound 197] | – | – | 0 | 20% | –
CCN(CC)CCCN1CCN(c2c(S(=O)(=O)c3ccc(OC)cc3)cnc3cc(OC)c(OC)cc23)CC1 [Compound 302] | – | – | 0 | 70% | –
CCCCCCCCCCCCCCOc1ccc(S(=O)(=O)c2cnc3ccc([S+](C)[O-])cc3c2N2CCC(N3CCC(N4CCCC(O)C4)CC3)CC2)cc1F (stereo not drawn) [Compound 364] | *** (more than 50% but less than 100% of endothelial cells vesicularize in cell shape) | – | – | – | cytotoxicity at 20 µM: 30%
CCCCCCCOc1ccc(S(=O)(=O)c2cnc3ccc([S+](C)[O-])cc3c2N2CCN(CCN3CCCCC3)CC2)cc1 (stereo not drawn) [Compound 282] | – | – | – | – | 48 hrs (morphology observations) (10 μm): 0; Cell death (10 μm): 10%
CCCCOc1ccc(S(=O)(=O)c2cnc3ccc(SC)cc3c2N2CCC(N3CCN(c4ccc(F)cc4)CC3)CC2)cc1 [Compound 233] | – | – | 0 | 5% | –
COc1ccc(S(=O)(=O)c2cnc3ccc(OC(F)(F)F)cc3c2NCCO)cc1OC [Compound 73] | – | – | – | 10% | –
CCCCOc1ccc(S(=O)(=O)c2cnc3ccc(SC)cc3c2N2CCC(=O)N(C)CC2)cc1 [Compound 357] | – | – | 0 | – | cytotoxicity at 40 µM: 0%
CCCCCCCCCCOc1ccc(S(=O)(=O)c2cnc3ccc([S+](C)[O-])cc3c2N2CCC(N3CCN(CCO)CC3)CC2)cc1F (stereo not drawn) [Compound 291] | – | – | – | – | Cell death, read at 24 hrs (20 μm, (24 hrs)): 10%; Endothelial cell morphology score at 24 hrs (20 μm, (24 hrs)): * (50% or less of cells vesicularize in cell shape)
CCCCCCCOc1ccc(S(=O)(=O)c2cnc3ccc(SC)cc3c2N2CCC(N3CCC(N4CCCCC4)CC3)CC2)cc1 [Compound 251] | *** (more than 50% but less than 100% of endothelial cells vesicularize in cell shape) | 60% | – | – | –
CCCCCCCOc1ccc(S(=O)(=O)c2cnc3ccc(SC)cc3c2N2CCC(N3CCCC(O)C3)CC2)cc1 (stereo not drawn) [Compound 247] | *** (more than 50% but less than 100% of endothelial cells vesicularize in cell shape) | 60% | – | – | –
CCCCCCCCCCOc1ccc(S(=O)(=O)c2cnc3ccc([S+](C)[O-])cc3c2N2CCN(C3CCN(CC)CC3)CC2)cc1 (stereo not drawn) [Compound 283] | – | – | – | – | 48 hrs (morphology observations) (10 μm): 0; cytotoxicity at 10 µM: 5%
CCCCCCCCCCCCOc1ccc(S(=O)(=O)c2cnc3ccc([S+](C)[O-])cc3c2N2CCC(N3CCC(N4CCC(O)CC4)CC3)CC2)cc1F (stereo not drawn) [Compound 372] | – | 20% | – | – | –
CCCCCCCOc1ccc(S(=O)(=O)c2cnc3ccc(SC)cc3c2N2CCN(CCN3CCCC3)CC2)cc1 [Compound 272] | * (50% or less of cells vesicularize in cell shape) | 20% | – | – | –

— patent US20250230226A1, “PLXDC1/PLXDC2 ACTIVATORS AND THEIR USE IN THE TREATMENT OF BLOOD VESSEL DISORDERS” (THE REGENTS OF THE UNIVERSITY OF CALIFORNIA, priority 2019, published 2025)
